The term ED50 denotes the dose that gives a 50% effect, or the effect in half of the subjects.

The structures appear in SMILES notation. Where two headings read alike, the source gives them in different places.

The source of these data is patent US4196288A, “Ergoline derivatives and a process for their preparation” (Societa Farmaceutici Italia S.p.A., priority 1976, dated 1980).

The subject of one data set is nidation. The experiment in a line: Nidation inhibition test in rats (anti-prolactin activity; absence of implantation sites). Format: in vivo, rat (Sprague-Dowley). Particulars: Rattus norvegicus. The source says: Prolactin is considered to be the only hypophysial hormone involved in the maintenance of the first part of pregnancy in rats.
For the assessment of the anti-prolactin activity, the nidation inhibition test (M.C. Shelesnyak, Amer. J. Physiol., 180, 47, 1955) in rats was employed. For the ergoline derivatives this test is considered to be correlated with prolactin-inhibiting ability (K. Rezabek et al., J. Pharm. Sci., 64, 1045, 1976).
Adult female rats, of the Sprague-Dowley strain, in proestrus were mated with fertile males and their vaginal smears were examined the next morning. The presence of spermatozoa was considered evidence of impregnation and onset of pregnancy (day 1).
The compounds to be tested were administered orally or subcutaneously to groups of from six to eight rats on day 3. On day 14, the animals were sacrificed and the uterus was examined for the presence of implantation sites. The absence of implantation sites was taken as the criterion of anti-prolactin activity.
Several doses were tested for the ED50 evaluation.
As the reference standard Bromocriptine was used, this being well known both for its anti-nidation (E. Fluckiger and H. R. Wagner, Experientia, 24, 1130, 1968) and its anti-prolactin activity (C. L. Brooks and C. W. Welsch, Proc. Soc. Exp. Bio. Med., 146, 863, 1974).

Data set [1] is described as follows: Emetic activity in dogs (intravenous). Particulars: dog, in vivo, male beagle dogs, i.v., observed for 1 hour after treatment, read-out: ≅ED50, emetic activity in dogs. From the text:
The emetic activity of some of the compounds was investigated by intravenous administration to male beagle dogs weighing 15-20 kg. […] Five to six animals per dose were employed for the ED50 evaluation.

The mark [2] stands for this setting: sc, rats, s.c., dosed on day 3, uterus examined on day 14, read-out: ≅ED50, nidation inhibition in rats (subcutaneous treatment).
[3] abbreviates: rats, os (oral), dosed on day 3, uterus examined on day 14, read-out: ≅ED50, nidation inhibition in rats (oral treatment).

Take `CN1CC(C(=O)COC(=O)c2cncc(Br)c2)C[C@@H]2c3cccc4[nH]cc(c34)C[C@H]21` (stereo partly shown) [Compound 613, 6-Methyl-8-(5'-bromonicotinoyloxyacetyl)ergoline]: the ED50 in the data set with nidation (setting [2]) and in the data set with nidation (setting [3]) was about 0.5 mg/kg throughout. In data set [1], the TD50 at 1 h was about 0.045 mg/kg.
On to `CN1CC(C(=O)CO)C[C@@H]2c3cccc4[nH]cc(c34)C[C@H]21` (stereo partly shown) [Compound 615, 6-Methyl-8-hydroxyacetylergoline], for which the ED50 with nidation (setting [2]) and in the data set on nidation (setting [3]) was about 0.5 mg/kg throughout. The TD50 at 1 h in data set [1] was about 0.025 mg/kg.
In the case of `CN1CC(C(=O)COC(=O)c2cccnc2)C[C@@H]2c3cccc4[nH]cc(c34)C[C@H]21` (stereo partly shown) [Compound 1012, 8-Nicotinoyloxyacetyl-6-methylergoline], the ED50 in the data set on nidation (setting [2]) and in the data set on nidation (setting [3]) was about 1 mg/kg throughout.
Turning to `CN1CC(C(=O)COC(=O)c2ccncc2)C[C@@H]2c3cccc4[nH]cc(c34)C[C@H]21` (stereo partly shown) [Compound 991, 8-Isonicotinoyloxyacetyl-6-methylergoline], the 50% effective dose (ED50) with nidation (setting [2]) and in the data set on nidation (setting [3]) was about 2 mg/kg throughout.
Take `CN1CC(C(=O)CN2CCCCC2)C[C@@H]2c3cccc4[nH]cc(c34)C[C@H]21` (stereo partly shown) [Compound 611, 6-Methyl-8-piperidinoacetylergoline]: the ED50 with nidation (setting [2]) was about 1 mg/kg; in the data set with nidation (setting [3]), about 0.5 mg/kg.
For the compound `COc1cccc(OC)c1C(=O)OCC(=O)C1C[C@@H]2c3cccc4[nH]cc(c34)C[C@H]2N(C)C1` (stereo partly shown) [Compound 1013, 8-(2',6'-dimethoxybenzoyloxyacetyl)-6-methylergoline], the ED50 in the data set with nidation (setting [2]) is about 1 mg/kg; in the data set with nidation (setting [3]), about 0.5 mg/kg.
In the case of `CCCCCC(=O)OCC(=O)C1C[C@@H]2c3cccc4[nH]cc(c34)C[C@H]2N(C)C1` (stereo partly shown) [Compound 992, 8-Caproyloxyacetyl-6-methylergoline], the ED50 was about 1 mg/kg with nidation (setting [2]) and about 0.5 mg/kg in the data set with nidation (setting [3]).
Take `CN1CC(C(=O)COC(=O)c2ccccc2)C[C@@H]2c3cccc4[nH]cc(c34)C[C@H]21` (stereo partly shown) [Compound 1000, 8-Benzoyloxyacetyl-6-methylergoline]: the ED50 is about 1 mg/kg with nidation (setting [2]) and about 0.5 mg/kg in the data set with nidation (setting [3]).
Turning to `CN1CCN(CC(=O)C2C[C@@H]3c4cccc5[nH]cc(c45)C[C@H]3N(C)C2)CC1` (stereo partly shown) [Compound 1014, 6-Methyl-8-(4'-methylpiperazino)acetylergoline], the ED50 in the data set on nidation (setting [2]) and in the data set on nidation (setting [3]) was about 1 mg/kg throughout.
For `CC(C)C[C@H]1C(=O)N2CCC[C@H]2[C@]2(O)O[C@](NC(=O)[C@@H]3C=C4c5cccc6[nH]c(Br)c(c56)C[C@H]4N(C)C3)(C(C)C)C(=O)N12` [Bromocriptine, reference compound], the ED50 with nidation (po, read-out: ≅ED50, nidation inhibition in rats (oral treatment)) is about 8 mg/kg; in the data set on nidation (sc, read-out: ≅ED50, nidation inhibition in rats (subcutaneous treatment)) it was about 1 mg/kg. In addition, the TD50 at 1 h in data set [1] was about 0.007 mg/kg.
In the case of `CN1CC(C(=O)COC(=O)C(C)(C)C)C[C@@H]2c3cccc4[nH]cc(c34)C[C@H]21` (stereo partly shown) [Compound 1011, 8-Pivaloyloxyacetyl-6-methylergoline], the ED50 with nidation (setting [2]) is about 1 mg/kg; in the data set with nidation (setting [3]), about 0.5 mg/kg.
